Patent publication US9029337B2, “Modulation of factor 7 expression” (Isis Pharmaceuticals, Inc., priority 2007, dated 2015)

How the values were obtained:
Assay type in all cases: in vivo, mouse
murine Factor 7 mRNA = assay: Liver Factor 7 mRNA in the FeCl3 induced venous thrombosis model; conditions: Example 15
Method: (§1) Three groups of BALB/c mice were injected with 25 mg/kg, 37.5 mg/kg, or 50 mg/kg of ISIS 403102, administered subcutaneously twice a week for 3 weeks. Two control groups of BALB/c mice were treated with PBS, administered subcutaneously twice a week for 3 weeks. Thrombus formation was induced with FeCl3 in half of the mice while the rest of the mice were assayed for tail bleeding. Two days after receiving the last dose of ISIS 403102 or PBS, mice were anesthetized with 150 mg/kg ketamine mixed with 10 mg/kg xylazine administered by intraperitoneal injection. Thrombus formation was induced with FeCl3 in all groups of the VT mice except the first control group.
(§2) In mice undergoing FeCl3 treatment, thrombus formation was induced by applying a piece of filter paper (2×4 mm) pre-saturated with 10% FeCl3 solution directly on the vena cava. After 3 minutes of exposure, the filter paper was removed. Thirty minutes after the filter paper application, a fixed length of the vein containing the thrombus was dissected out for platelet analysis. Liver was collected for RNA analysis.
RNA was extracted from liver tissue for real-time RT-PCR analysis of Factor 7. Results are presented as percent inhibition of Factor 7, relative to PBS control.
ISIS 403102 and warfarin (Coumadin®) were evaluated in BALB/c mice. Four groups of BALB/c mice were treated with 5 mg/kg, 10 mg/kg, 20 mg/kg, or 40 mg/kg of ISIS 403102, administered subcutaneously twice a week for 3 weeks. Two days after receiving the last dose of ISIS 403102, mice were anesthetized with 150 mg/kg ketamine mixed with 10 mg/kg xylazine administered by intraperitoneal injection. A fifth group of BALB/c mice was treated with 3 mg/kg of warfarin, administered intraperioneally daily for 6 days. Four hours after the last dose of warfarin, mice were sacrificed. A control group of BALB/c mice were treated with PBS, administered subcutaneously twice a week for 3 weeks. Two days after the last dose of PBS, mice were anesthetized with 150 mg/kg ketamine mixed with 10 mg/kg xylazine administered by intraperitoneal injection. Thrombus formation was induced with FeCl3 in groups of mice except the first control group.

platelet factor-4 (PF-4) = assay: Thrombus formation by real-time RT-PCR quantification of PF-4 in the FeCl3 induced venous thrombosis model; conditions: Example 16; dose of 1 mg/kg and higher, intraperitoneally daily for 6 days
Method: as §1, §2
Real-time RT-PCR quantification of platelet factor-4 (PF-4) was used to quantify platelets in the vena cava as a measure of thrombus formation. Results are presented as a percentage of PF-4 in ISIS 403102, as compared to the two PBS-treated control groups. […] Therefore, antisense oligonucleotides are useful for inhibiting thrombus and clot formation.
ISIS 403102 and warfarin (Coumadin®) were evaluated in BALB/c mice. Four groups of BALB/c mice were treated with 5 mg/kg, 10 mg/kg, 20 mg/kg, or 40 mg/kg of ISIS 403102, administered subcutaneously twice a week for 3 weeks. Two days after receiving the last dose of ISIS 403102, mice were anesthetized with 150 mg/kg ketamine mixed with 10 mg/kg xylazine administered by intraperitoneal injection. Six additional groups of BALB/c mice was treated with 0.5 mg/kg, 1 mg/kg, 2 mg·kg, 3 mg/kg, 4 mg/kg, or 5 mg/kg of warfarin, administered intraperioneally daily for 6 days. Four hours after the last dose of warfarin, mice were sacrificed. A control group of BALB/c mice were treated with PBS, administered subcutaneously twice a week for 3 weeks. Two days after the last dose of PBS, mice were anesthetized with 150 mg/kg ketamine mixed with 10 mg/kg xylazine administered by intraperitoneal injection. Thrombus formation was induced with FeCl3 in groups of mice except the first control group.
Real-time RT-PCR quantification of platelet factor-4 (PF-4) was used to quantify platelets in the vena cava as a measure of thrombus formation. Results are presented as a percentage of PF-4 in ISIS 403102 or warfarin treated mice, as compared to the two PBS-treated control groups. […] Therefore, ISIS antisense oligonucleotides are useful for inhibiting thrombus and clot formation.

BALB/c mice = assay: Tail bleeding assay; conditions: Example 17; for Blood (g), tail bleeding: BALB/c mice, blood collected over 40 minutes
Method: Mice not receiving treatment with FeCl3 solution were evaluated in a tail bleeding chamber. Mice were placed into the bleeding chamber two days after the final treatment of ISIS 403102 or PBS. Mice were anesthetized in the chamber with isofluorane and a small piece of tail (approximately 4 mm from the tip) was cut with sterile scissors. The cut tail was immediately placed in a 15 mL Falcon tube filled with approximately 10 mL of 0.9% NaCl buffer solution warmed to 37° C. The blood was collected over the course of 40 minutes. The saline filled tubes were weighed both before and after bleeding.
Tail-bleeding was measured to observe whether treatment with ISIS 403102 or warfarin causes internal hemorrhage in mice. ISIS 403102 and warfarin (Coumadin®) were evaluated in the tail bleeding assay. Six groups of BALB/c mice were treated with 1.25 mg/kg, 2.5 mg/kg, 5 mg/kg, 10 mg/kg, 20 mg/kg, or 40 mg/kg of ISIS 403102, administered subcutaneously twice a week for 3 weeks. An additional 6 groups of BALB/c mice were treated with 0.5 mg/kg, 1 mg/kg, 2 mg/kg, 3 mg/kg, 4 mg/kg, and 5 mg/kg of warfarin, administered intraperioneally daily for 6 days. A separate control group of BALB/c mice was treated with PBS, administered subcutaneously twice a week for 3 weeks.
Two days after the final treatment of ISIS 403102, warfarin, or PBS, mice were placed in a tail bleeding chamber. Mice were anesthetized in the chamber with isofluorane and a small piece of tail (approximately 4 mm from the tip) was cut with sterile scissors. The cut tail was immediately placed in a 15 mL Falcon tube filled with approximately 10 mL of 0.9% NaCl buffer solution warmed to 37° C. The blood was collected over the course of 40 minutes. The saline filled tubes were weighed both before and after bleeding.
ISIS 403102 and Apixaban were evaluated in BALB/c mice. In a first group of BALB/c mice, 40 mg/kg of ISIS 403102 was administered subcutaneously twice a week for 3 weeks. An additional 3 groups of BALB/c mice were treated with 5 mg/kg and 10 mg/kg of Apixaban, administered in a single intraperitoneal dose, and 10 mg/kg of Apixaban administered as a single subcutaneous dose. A control group of BALB/c mice was treated with PBS, administered subcutaneously twice a week for 3 weeks.
Two days after the final treatment of ISIS 403102 or PBS, mice were placed in a tail bleeding chamber. Mice from the groups treated with Apixaban were analyzed 30 minutes after the single dose. Mice were anesthetized in the chamber with isofluorane and a small piece of tail (approximately 4 mm from the tip) was cut with sterile scissors. The cut tail was immediately placed in a 15 mL Falcon tube filled with approximately 10 mL of 0.9% NaCl buffer solution warmed to 37° C. The blood was collected over the course of 40 minutes. The saline filled tubes were weighed before and after bleeding.

CC(=O)CC(c1ccccc1)c1c(O)c2ccccc2oc1=O (stereo not shown) [warfarin]
reduction of Factor 7 mRNA as compared to the PBS control (murine Factor 7 mRNA; 3 mg/kg intraperitoneally daily for 6 days): did not result in significant reduction of Factor 7 | % inhibition of Factor 7 mRNA, relative to PBS control (murine Factor 7 mRNA; BALB/c mice liver, 3 mg/kg i.p. daily for 6 days, four hours after last dose): 10% | PF-4 in comparison to the PBS control (platelet factor-4 (PF-4)): reduction of PF-4 | bleeding as compared to PBS control mice (BALB/c mice; 0.5-5 mg/kg intraperitoneally daily for 6 days): did increase bleeding | Blood (g), tail bleeding (BALB/c mice; 0.5 mg/kg i.p. daily for 6 days): 0.16 g | Blood (g), tail bleeding (BALB/c mice; 1 mg/kg i.p. daily for 6 days): 0.28 g | Blood (g), tail bleeding (BALB/c mice; 2 mg/kg i.p. daily for 6 days): 0.58 g | Blood (g), tail bleeding (BALB/c mice; 3 mg/kg i.p. daily for 6 days): 0.78 g | Blood (g), tail bleeding (BALB/c mice; 4 mg/kg i.p. daily for 6 days): 0.66 g | Blood (g), tail bleeding (BALB/c mice; 5 mg/kg i.p. daily for 6 days): 0.93 g
